Experimental data as given in patent EP4640052A1 (BASF SE, priority 2024, dated 2025).
Read-outs that look alike come from different tables or passages of the source.

Columns and labels:
[1] = test system: Cercospora sojina (CERCSO); format: cell-based
[2] = test system: Pyricularia oryzae (PYRIOR); test: microbe, parasite or virus in culture; format: cell-based; conditions: Pyricularia oryzae, 168 h, read-out: Observed efficacy
[3] = test system: Septoria tritici (SEPTTR); test: microbe, parasite or virus in culture; format: cell-based; conditions: Zymoseptoria tritici, 168 h, read-out: Observed efficacy
[4] = test system: Alternaria solani (ALTESO); test: microbe, parasite or virus in culture; format: cell-based; conditions: Alternaria solani, 168 h, read-out: Observed efficacy
Monilinia sp. (MONISP) = test: microbe, parasite or virus in culture; format: cell-based; conditions: Monilinia, 168 h, read-out: Observed efficacy
[5] = test system: Pyrenophora teres (PYRNTE), Qol resistant (F129L); test: microbe, parasite or virus in culture; format: cell-based; conditions: Pyrenophora teres, 168 h, read-out: Observed efficacy
[6] = test system: Sclerotinia sclerotiorum (SCLESC); test: microbe, parasite or virus in culture; format: cell-based; conditions: Sclerotinia sclerotiorum, 168 h, read-out: Observed efficacy
[7] = test system: Blumeria graminis f. sp. tritici; test: Green house use example 11: control of powdery mildew on wheat, sprayed 2 days after inoculation (ERYSGT K2); format: in vivo; conditions: G143A strain, single active
[8] = test system: Blumeria graminis f. sp. tritici; conditions: in vivo
Phakopsora pachyrhizi [9] = test: Green house use example 13: curative control of soybean rust on soybeans (PHAKPA F129L K4); format: in vivo
Phakopsora pachyrhizi [10] = conditions: in vivo

With `CC(Cc1ccc(C(C)(C)C)cc1)CN1C[C@@H](C)O[C@@H](C)C1` (stereo partly shown) [fenpropimorph, reference compound] the Observed efficacy [1] was 3%, the inhibition of growth at 0.016 ppm [2] was 0% and the inhibition of growth at 0.063 ppm [3] was 0%. It also gave an inhibition of growth at 0.25 ppm [3] of 0%, an inhibition of growth at 1 ppm [3] of 44% and an inhibition of growth at 0.25 ppm [4] of 18%. It also gave an inhibition of growth at 1 ppm [4] of 61%, an inhibition of growth at 0.016 ppm (Monilinia sp. (MONISP)) of 2% and an inhibition of growth at 1 ppm [5] of 33%. The inhibition of growth at 1 ppm [6] was 39%, the inhibition of growth at 4 ppm [6] was 65% and the Observed efficacy ([7]; 16 ppm) was 32. The Observed efficacy ([7]; 63 ppm) was 35, the Observed efficacy [8] was 16 and the Observed efficacy (Phakopsora pachyrhizi [9]; Trial 1, single compound, 4 ppm) was 8. For the same molecule, the Observed efficacy (Phakopsora pachyrhizi [9]; Trial 1, single compound, 12 ppm) was 13, the Observed efficacy (Phakopsora pachyrhizi [9]; Trial 2, single compound, 4 ppm) was 6 and the Observed efficacy (Phakopsora pachyrhizi [9]; Trial 2, single compound, 16 ppm) was 11. It also gave an Observed efficacy (Phakopsora pachyrhizi [10]) of 0.
